PubChem BioAssay (NCI)
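Exposure lasted 48 hours, with cells grown in 96-well plates and compounds tested at five concentrations. TGI denotes the concentration required for complete inhibition of growth.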

Tests used:
Assay in all cases: NCI tumour cell line growth inhibition, 48 h
NCI/ADR-RES ovarian = test system: NCI/ADR-RES ovarian
M14 melanoma = test system: M14 melanoma
MDA-N = test system: MDA-N
HCT-116 colon = test system: HCT-116 colon
HOP-62 NSCLC = test system: HOP-62 NSCLC
SF-268 CNS = test system: SF-268 CNS
COLO 205 colon = test system: COLO 205 colon
OVCAR-4 ovarian = test system: OVCAR-4 ovarian
SN12C renal = test system: SN12C renal
SK-MEL-2 melanoma = test system: SK-MEL-2 melanoma
UO-31 renal = test system: UO-31 renal
MCF7 breast = test system: MCF7 breast
TK-10 renal = test system: TK-10 renal
HS 578T breast = test system: HS 578T breast
SK-MEL-28 melanoma = test system: SK-MEL-28 melanoma
786-0 renal = test system: 786-0 renal
RPMI-8226 leukemia = test system: RPMI-8226 leukemia
MALME-3M melanoma = test system: MALME-3M melanoma
T-47D breast = test system: T-47D breast
UACC-62 melanoma = test system: UACC-62 melanoma
SR leukemia = test system: SR leukemia
MDA-MB-231 breast = test system: MDA-MB-231 breast
SK-MEL-5 melanoma = test system: SK-MEL-5 melanoma
LOX IMVI melanoma = test system: LOX IMVI melanoma
A498 renal = test system: A498 renal
HOP-92 NSCLC = test system: HOP-92 NSCLC
CAKI-1 renal = test system: CAKI-1 renal
BT-549 breast = test system: BT-549 breast
HCT-15 colon = test system: HCT-15 colon
U251 CNS = test system: U251 CNS
MDA-MB-435 = test system: MDA-MB-435
CCRF-CEM leukemia = test system: CCRF-CEM leukemia
DU-145 prostate = test system: DU-145 prostate
IGROV1 ovarian = test system: IGROV1 ovarian
A549 NSCLC = test system: A549 NSCLC
SNB-19 CNS = test system: SNB-19 CNS
MOLT-4 leukemia = test system: MOLT-4 leukemia
HL-60(TB) leukemia = test system: HL-60(TB) leukemia
NCI-H522 lung = test system: NCI-H522 lung
SF-539 CNS = test system: SF-539 CNS
NCI-H23 lung = test system: NCI-H23 lung
NCI-H226 lung = test system: NCI-H226 lung
OVCAR-8 ovarian = test system: OVCAR-8 ovarian
ACHN renal = test system: ACHN renal
OVCAR-3 ovarian = test system: OVCAR-3 ovarian
OVCAR-5 ovarian = test system: OVCAR-5 ovarian
SK-OV-3 ovarian = test system: SK-OV-3 ovarian
SF-295 CNS = test system: SF-295 CNS
EKVX NSCLC = test system: EKVX NSCLC
HT29 colon = test system: HT29 colon
K-562 leukemia = test system: K-562 leukemia
KM12 colon = test system: KM12 colon
SW-620 colon = test system: SW-620 colon
PC-3 prostate = test system: PC-3 prostate
RXF 393 renal = test system: RXF 393 renal
HCC-2998 colon = test system: HCC-2998 colon
UACC-257 melanoma = test system: UACC-257 melanoma
NCI-H460 lung = test system: NCI-H460 lung
SNB-75 CNS = test system: SNB-75 CNS

Measured: TGI

COc1ccc2c3c1O[C@H]1C(=O)C=CC4(n5[nH]c(=O)n(-c6ccccc6)c5=O)C(C2)N(C)CCC314 (stereo partly specified)
not listed: RXF 393 renal | HCC-2998 colon | UACC-257 melanoma | NCI-H460 lung | SNB-75 CNS
> 100 µM: all other assays above

COC(=O)C(CCC1CC(OC)N(C(=O)OCc2ccccc2)C1)N=Cc1ccccc1 (stereo unspecified)
78.8 µM: SK-MEL-2 melanoma
78.7 µM: COLO 205 colon
83.9 µM: SK-MEL-5 melanoma
72.9 µM: NCI-H522 lung
91.7 µM: RPMI-8226 leukemia
not listed: MALME-3M melanoma
> 100 µM: all other assays above

COC(=O)c1c2c(c3[nH]c4ccccc4c3c1C(=O)OC)C(=O)C1=C(C2=O)C2(Cl)C(Cl)C(Cl)C1(Cl)C2(Cl)Cl (stereo unspecified)
6.84 µM: SF-268 CNS | SNB-75 CNS
3.42 µM: MCF7 breast
8.07 µM: 786-0 renal
4.51 µM: SF-539 CNS
3.19 µM: COLO 205 colon
4.6 µM: ACHN renal
7.07 µM: HT29 colon
8.52 µM: IGROV1 ovarian
9.19 µM: CAKI-1 renal
5.28 µM: OVCAR-8 ovarian
20.8 µM: HS 578T breast
7.78 µM: HL-60(TB) leukemia
3.67 µM: MOLT-4 leukemia
13.8 µM: NCI-H460 lung
6.31 µM: OVCAR-4 ovarian
4.05 µM: MALME-3M melanoma
21.7 µM: HOP-62 NSCLC
7.59 µM: MDA-MB-231 breast
6.17 µM: HCC-2998 colon
3.91 µM: LOX IMVI melanoma
7.48 µM: U251 CNS
10.8 µM: PC-3 prostate
2.97 µM: SK-MEL-28 melanoma
4.04 µM: NCI-H23 lung
16.3 µM: T-47D breast
8.98 µM: OVCAR-3 ovarian
3.09 µM: MDA-MB-435
8.65 µM: UO-31 renal
24.7 µM: SNB-19 CNS
5.68 µM: M14 melanoma
23.2 µM: K-562 leukemia
3.03 µM: A498 renal
4.34 µM: BT-549 breast
90.9 µM: SF-295 CNS
2.75 µM: MDA-N | SK-MEL-5 melanoma
37 µM: SK-OV-3 ovarian
5.09 µM: RPMI-8226 leukemia
17.5 µM: TK-10 renal
3.68 µM: HOP-92 NSCLC
17.3 µM: KM12 colon
2.63 µM: SR leukemia
1.4 µM: SW-620 colon
4.59 µM: UACC-62 melanoma
6.15 µM: CCRF-CEM leukemia
> 100 µM: HCT-116 colon | DU-145 prostate | A549 NSCLC | OVCAR-5 ovarian | EKVX NSCLC
2.72 µM: NCI-H522 lung
5.98 µM: SN12C renal
7.19 µM: NCI/ADR-RES ovarian
